Test results reported in article PMC10937676, “Targeting the NTSR2/TrkB oncogenic pathway in chronic lymphocytic leukemia” (Scientific Reports, 2024).

How the values were obtained:
Type in all cases: cell-based, human
SRC = experiment: Immunoblot, relative phosphorylation level of SRC in CLL-B cells; conditions: CLL-B cells from 10 patients, overnight, 10 µM
Method: (§1) Figure 5 The peptide inhibits kinase phosphorylation. CLL-B cells from 10 patients were incubated overnight, with or without 10 µM of TAT-Pep. Whole cell lysates were then prepared, and 10 µg of proteins were immunoblotted to assess the following parameters. (A) Relative phosphorylation level of SRC. (B) Relative phosphorylation level of AKT. (C) Relative phosphorylation level of LYN. (D) Relative phosphorylation level of BTK. (E) Relative phosphorylation level of all tyrosine-phosphorylated proteins.
(§2) Whole cell lysate proteins were extracted using RIPA buffer (Sigma-Aldrich) and sonication (VibraCell™). Plasma membrane proteins were recovered by using the Plasma Membrane Protein Extraction Kit (Abcam) according to the manufacturer’s instructions. A list of the antibodies used for immunoblotting is available in Supplementary Table 2. Bands were quantitatively assessed by densitometry using Fiji software. To evaluate the level of interaction of NTSR2 and TRKB we normalized the density of the TRKB bands by the density of the NTSR2 bands to obtain the relative amount of TRKB co-precipitated through NTSR2.

AKT = experiment: Immunoblot, relative phosphorylation level of AKT in CLL-B cells; conditions: CLL-B cells from 10 patients, overnight, 10 µM
Method: as §1, §2

LYN = experiment: Immunoblot, relative phosphorylation level of LYN in CLL-B cells; conditions: CLL-B cells from 10 patients, overnight, 10 µM
Method: as §1, §2

[1] = system: Bruton Tyrosine Kinase (BTK); experiment: Immunoblot, relative phosphorylation level of BTK in CLL-B cells; conditions: CLL-B cells from 10 patients, overnight, 10 µM
Method: as §1, §2

[2] = system: all tyrosine-phosphorylated proteins; experiment: Immunoblot, relative phosphorylation level of all tyrosine-phosphorylated proteins in CLL-B cells; conditions: CLL-B cells from 10 patients, overnight, 10 µM
Method: as §1, §2

BCL-2 = experiment: Immunoblot, relative level of anti-apoptotic protein BCL-2 in CLL-B cells; conditions: CLL-B cells from 10 patients, overnight, 10 µM
Description: (§3) Concerning anti-apoptotic protein expression, a decrease in anti-apoptotic proteins BCL-2; BCL-XL and MCL-1 was observed after TAT-Pep treatment of CLL-B cells, possibly as a consequence of the SRC kinase inactivation (Fig. 6A–C). To unveil whether the regulation mechanism behind the observed modifications was transcriptional or post-transcriptional, we evaluated the mRNA levels of all three anti-apoptotic proteins following peptide treatment. […] To further underline that the induction of cell death following TAT-Pep treatment involved apoptosis regulation pathways, we used B cells from six CLL patients and stained them with Annexin V in both TAT-Pep treated and untreated conditions. […]
(§4) Figure 6 The peptide lowers anti-apoptotic proteins levels. […] CLL-B cells from 12 patients were incubated overnight, with or without 10 µM of TAT-Pep, subsequently RNA was extracted from cell lysates and mRNA levels of BCL-2 (D); BCL-XL (E) and MCL-1 (F) were evaluated using RTqPCR; 18S was used as a housekeeping gene. (G) Increased concentrations (0 to 30 µM) of TAT-Pep were incubated with 20,000 CLL-B, and the number of Annexin V-positive cells was measured using the Incucyte live-cell imaging device. Fluorescence was monitored for 48 h. […] The ‘Green Object Count/Phase Object Count’ ratio was determined using the Incucyte analysis software to obtain the percentage of apoptotic cells. […]

MCL-1 = experiment: Immunoblot, relative level of anti-apoptotic protein MCL-1 in CLL-B cells; conditions: CLL-B cells from 10 patients, overnight, 10 µM
Description: as §3, §4

BCL-2 mRNA = experiment: RTqPCR, mRNA level of BCL-2 in CLL-B cells; conditions: CLL-B cells from 12 patients, overnight, 10 µM, 18S housekeeping gene
Description: as §3, §4

BCL-XL mRNA = experiment: RTqPCR, mRNA level of BCL-XL in CLL-B cells; conditions: CLL-B cells from 12 patients, overnight, 10 µM, 18S housekeeping gene
Description: as §3, §4

MCL-1 mRNA = experiment: RTqPCR, mRNA level of MCL-1 in CLL-B cells; conditions: CLL-B cells from 12 patients, overnight, 10 µM, 18S housekeeping gene
Description: as §3, §4

Sequence: GRKKRRQRRRPPQNAVSSSFRKLFLEAVSSLCGEHHPMKRLPPKPQSPTLMDTASGFGDPPETRT [TAT-Pep]
- amount of phosphorylated SRC (in words) (SRC): significant decrease
- AKT phosphorylation (in words) (AKT): did not observe any variation
- LYN phosphorylation (in words) (LYN): significant decrease in phosphorylation
- BTK phosphorylation (in words) [1]: did not affect BTK phosphorylation
- global level of tyrosine phosphorylation (in words) [2]: general decrease in tyrosine phosphorylation
- level of anti-apoptotic protein BCL-2 (in words) (BCL-2): decrease
- level of anti-apoptotic protein MCL-1 (in words) (MCL-1): decrease
- mRNA level of BCL-2 (in words) (BCL-2 mRNA): significantly lowered expression
- mRNA level of BCL-XL (in words) (BCL-XL mRNA): significantly lowered expression
- mRNA level of MCL-1 (in words) (MCL-1 mRNA): significantly lowered expression
